Results published in ChEMBL document CHEMBL4342407, “Thieno[2,3-d]pyrimidine as a promising scaffold in medicinal chemistry: Recent advances” (Bioorg Med Chem, 2019).

Legend:
MCF7 [1] = assay: Antiproliferative activity against human MCF7 by MTT assay; type: functional, cell-based
HepG2 [2] = assay: Antiproliferative activity against human HepG2 cells by MTT assay; type: functional, cell-based
Rattus norvegicus [3] = assay: Antiinflammatory activity in Sprague-Dawley rat assessed as protection against carrageenan-induced edema at 40 mg/kg, po pretreated for 1 hr followed by carrageenan challenge and measured after 3 hrs by mercury plethysmometer relative to control; type: functional
[4] = Ulcerogenic activity in Wistar albino rat assessed as ulcer index at 250 mg/kg, ip pretreated for 1 hr followed by pylorus ligation and measured at 4 hrs post ligation; type: toxicity, organism-based; settings: in vivo
Rattus norvegicus [5] = assay: Anti-ulcer activity in Wistar albino rat assessed as reduction in pylorus ligation induced ulcer at 250 mg/kg, ip pretreated for 1 hr followed by pylorus ligation and measured at 4 hrs post ligation; type: functional
Candida albicans = assay: […] activity against Candida albicans assessed as zone inhibition at 500 ug/ml by cup plate agar diffusion method; type: functional; settings: for zone of inhibition at 500 µg/mL: read-out: IZ
Bacillus subtilis [6] = assay: Antibacterial activity against Bacillus subtilis assessed as zone inhibition at 500 ug/ml by cup plate agar diffusion method; type: functional; settings: read-out: IZ
Staphylococcus aureus [7] = assay: Antibacterial activity against Staphylococcus aureus assessed as zone inhibition at 500 ug/ml by cup plate agar diffusion method; type: functional; settings: read-out: IZ
Escherichia coli [8] = assay: Antibacterial activity against Escherichia coli assessed as zone inhibition at 500 ug/ml by cup plate agar diffusion method; type: functional; settings: read-out: IZ
Pseudomonas aeruginosa = assay: Antibacterial activity against Pseudomonas aeruginosa assessed as zone inhibition at 500 ug/ml by cup plate agar diffusion method; type: functional; settings: read-out: IZ
Bacillus subtilis [9] = assay: Antibacterial activity against Bacillus subtilis assessed as zone inhibition at 100 ug/ml; type: functional; settings: read-out: IZ
Staphylococcus aureus [10] = assay: Antibacterial activity against Staphylococcus aureus assessed as zone inhibition at 100 ug/ml; type: functional; settings: read-out: IZ
Klebsiella pneumoniae = assay: Antibacterial activity against Klebsiella pneumoniae assessed as zone inhibition at 100 ug/ml; type: functional; settings: read-out: IZ
Escherichia coli [11] = assay: Antibacterial activity against Escherichia coli assessed as zone inhibition at 100 ug/ml; type: functional; settings: read-out: IZ
Rattus norvegicus [12] = assay: Antiinflammatory activity in po dosed Wistar rat assessed as reduction in carrageenan-induced paw edema pretreated for 1 hr followed by carrageenan challenge and measured over 2 to 4 hrs post carrageenan challenge by plethysmography; type: functional
Rattus norvegicus [13] = assay: Antiinflammatory activity in Wistar rat assessed as inhibition of cotton pellet-induced granuloma at 75 mg/kg, po administered daily for 7 days and measured on day 8 relative to control; type: functional
Mus musculus [14] = assay: Antiinflammatory activity in Swiss mouse assessed as inhibition of TPA-induced ear edema at 1 mg/ear applied topically and measured 4 hrs post-TPA challenge relative to control; type: functional
Rattus norvegicus [15] = assay: Antiinflammatory activity in Wistar rat model of Freund's adjuvant-induced arthritis assessed as inhibition of arthritis by measuring reduction in paw volume at 75 mg/kg, po administered once daily for 8 days starting from day 7 post Freund's adjuvant treatment and measured after 18 days by mercury plethysmography relative to control; type: functional
ECa-109 cell line = assay: Antiproliferative activity against human EC109 at 50 ug/ml after 48 hrs by MTT assay; type: functional; settings: ECa-109, 48 h
HepG2 [16] = assay: Antiproliferative activity against human HepG2 at 50 ug/ml after 48 hrs by MTT assay; type: functional; settings: HepG2, 48 h
MGC-803 = assay: Antiproliferative activity against human MGC803 at 50 ug/ml after 48 hrs by MTT assay; type: functional; settings: MGC-803, 48 h
MCF7 [17] = assay: Antiproliferative activity against human MCF7 after 24 hrs by MTT assay; type: functional, cell-based; settings: MCF7, 24 h
HeLa = assay: Antiproliferative activity against human HeLa after 24 hrs by MTT assay; type: functional, cell-based
HEp-2 = assay: Antiproliferative activity against human Hep2 after 24 hrs by MTT assay; type: functional, cell-based; settings: HEp-2, 24 h
Mus musculus [18] = assay: Analgesic activity in Swiss albino mouse assessed as protection against acetic acid-induced writhing at 15 mg/kg, po pretreated for 30 mins followed by acetic acid challenge and measured after 20 mins relative to control; type: functional
[19] = Ulcerogenic activity in Sprague-Dawley rat assessed as ulcer index at 20 mg/kg, ip pretreated followed by pylorus ligation and measured at 4 hrs post ligation; type: toxicity, organism-based; settings: in vivo

Cc1ccccc1CNc1nc(C(F)(F)F)nc2sc3c(c12)CCC3
IC50 (MCF7 [1]): 83.6 µM
IC50 (HepG2 [2]): > 100 µM

C[C@]12CC[C@H]3[C@@H](CC=C4CC(O)CC[C@@]43C)[C@@H]1CC[C@@H]2C1=CSC2N=CN(N)C(=O)C12 (some centres undefined)
Activity (Rattus norvegicus [3]): 24%
UI [4]: 1.02
inhibition in vivo at 250 mg/kg (Rattus norvegicus [5]): 71.7%

CC(=C(C#N)C(=O)NN)[C@H]1CC[C@H]2[C@@H]3CC=C4CC(O)CC[C@]4(C)[C@H]3CC[C@]12C (some centres undefined)
Activity (Rattus norvegicus [3]): 90%
UI [4]: 2.11
inhibition in vivo at 250 mg/kg (Rattus norvegicus [5]): 41.4%

Fc1cccc(CNc2nc(C(F)(F)F)nc3sc4c(c23)CCC4)c1
IC50 (MCF7 [1]): 5.18 µM
IC50 (HepG2 [2]): 7.31 µM

NYSTATIN
inhibition zone (IZ) (Candida albicans): 20.8 mm

c1ccc2c(c1)N=C(c1cnccn1)CC(c1cc3cncnc3s1)S2 (centres undefined)
zone of inhibition at 500 µg/mL (Bacillus subtilis [6]): 16.2 mm
zone of inhibition at 500 µg/mL (Staphylococcus aureus [7]): 15.7 mm
zone of inhibition at 500 µg/mL (Escherichia coli [8]): 13.6 mm
zone of inhibition at 500 µg/mL (Pseudomonas aeruginosa): 13.4 mm
zone of inhibition at 500 µg/mL (Candida albicans): 10.8 mm

c1csc(C2=NOC(c3cc4cncnc4s3)C2)c1 (centres undefined)
zone of inhibition at 100 µg/mL (Bacillus subtilis [9]): 11.5 mm
zone of inhibition at 100 µg/mL (Staphylococcus aureus [10]): 12.5 mm
zone of inhibition at 100 µg/mL (Klebsiella pneumoniae): 14.5 mm
zone of inhibition at 100 µg/mL (Escherichia coli [11]): 15.5 mm

c1csc(C2=Nc3ccccc3SC(c3cc4cncnc4s3)C2)c1 (centres undefined)
zone of inhibition at 500 µg/mL (Bacillus subtilis [6]): 19.4 mm
zone of inhibition at 500 µg/mL (Staphylococcus aureus [7]): 19.2 mm
zone of inhibition at 500 µg/mL (Escherichia coli [8]): 19.4 mm
zone of inhibition at 500 µg/mL (Pseudomonas aeruginosa): 19.4 mm
zone of inhibition at 500 µg/mL (Candida albicans): 19.6 mm

CC(C)Cc1ccc(C(C)C(=O)O)cc1 (centres undefined) [IBUPROFEN]
ED50 (Rattus norvegicus [12]): 19.7 mg/kg
inhibition in vivo at 75 mg/kg (Rattus norvegicus [13]): 44.6%
inhibition (INH) (Mus musculus [14]): 40.2%

CN1C(C(=O)Nc2ccccn2)=C(O)c2ccccc2S1(=O)=O [PIROXICAM]
ED50 (Rattus norvegicus [12]): 7.8 mg/kg
inhibition in vivo at 75 mg/kg (Rattus norvegicus [13]): 67.9%
inhibition in vivo at 75 mg/kg (Rattus norvegicus [15]): 51.6%
inhibition (INH) (Mus musculus [14]): 12.2%

FC(F)(F)c1nc(NCc2ccc(Cl)cc2)c2c3c(sc2n1)CCC3
IC50 (MCF7 [1]): 13.8 µM
IC50 (HepG2 [2]): 8.63 µM

CCc1cc2c(=O)n(NC(c3cccc([N+](=O)[O-])c3)P(=O)(OC(C)C)OC(C)C)c(C)nc2s1 (centres undefined)
inhibition at 50 µg/mL (ECa-109 cell line): 45.3%
inhibition at 50 µg/mL (HepG2 [16]): 90.8%
inhibition at 50 µg/mL (MGC-803): 63.6%

Nc1c(C(=O)Nc2ccc(I)cc2)sc2nc(N3CCOCC3)nc(-c3ccccc3)c12
IC50 (MCF7 [17]): 42.8 µM
IC50 (HeLa): 60.8 µM

COc1cccc2c1C(=O)c1c(O)c3c(c(O)c1C2=O)C[C@@](O)(C(=O)CO)C[C@@H]3O[C@H]1C[C@H](N)[C@H](O)[C@H](C)O1 [DOXORUBICIN]
IC50 (HEp-2): 6.32 µM

CCc1cc2c(=O)n(/N=C/c3ccccc3)c(C)nc2s1
inhibition at 50 µg/mL (ECa-109 cell line): 51.4%
inhibition at 50 µg/mL (HepG2 [16]): 57%
inhibition at 50 µg/mL (MGC-803): 74.6%

CC(=O)Oc1ccccc1C(=O)O [ASPIRIN]
ED50 (Rattus norvegicus [12]): 69.3 mg/kg
inhibition in vivo at 75 mg/kg (Rattus norvegicus [13]): 30.1%
inhibition in vivo at 75 mg/kg (Rattus norvegicus [15]): 40%
inhibition (INH) (Mus musculus [14]): 20.1%
Activity (Mus musculus [18]): 53%
UI [19]: 1.1 to 1.7

FC(F)(F)c1ccc(C2=Nc3ccccc3SC(c3cc4cncnc4s3)C2)cc1 (centres undefined)
zone of inhibition at 500 µg/mL (Bacillus subtilis [6]): 18.8 mm
zone of inhibition at 500 µg/mL (Staphylococcus aureus [7]): 17 mm
zone of inhibition at 500 µg/mL (Escherichia coli [8]): 16.2 mm
zone of inhibition at 500 µg/mL (Pseudomonas aeruginosa): 16.1 mm
zone of inhibition at 500 µg/mL (Candida albicans): 16 mm

C[C@]12CC[C@H]3[C@@H](CC=C4CC(O)CC[C@@]43C)[C@@H]1CC[C@@H]2c1csc(N)c1C(=O)NNC(=S)Nc1ccccc1 (some centres undefined)
Activity (Rattus norvegicus [3]): 81%
UI [4]: 2.11
inhibition in vivo at 250 mg/kg (Rattus norvegicus [5]): 41.4%

COc1ccccc1CNc1nc(C(F)(F)F)nc2sc3c(c12)CCC3
IC50 (MCF7 [1]): > 100 µM
IC50 (HepG2 [2]): > 100 µM

COc1ccc(C2=NC3SC=C([C@H]4CC[C@H]5[C@@H]6CC=C7CC(O)CC[C@]7(C)[C@H]6CC[C@]45C)C3C(=O)N2N)cc1 (some centres undefined)
Activity (Rattus norvegicus [3]): 92%
UI [4]: 0.29
inhibition in vivo at 250 mg/kg (Rattus norvegicus [5]): 91.9%

FC(F)(F)c1nc(NCc2ccccc2)c2c3c(sc2n1)CCC3
IC50 (MCF7 [1]): 11.8 µM
IC50 (HepG2 [2]): 13.5 µM
